Data from patent publication US12551532B2, “Long-acting amylin receptor agonists and uses thereof” (Eli Lilly and Company, priority 2021, dated 2026).
Starred links: 1 amine or outer side, 2 acyl side, 3 side chain; linkers in the order of their positions; H or OH if unused. Positions of bridges follow the written chain, without caps; N, C: chain ends. Non-standard residues stand in square brackets, D forms with d. Residues, ends and D or L forms follow the SMILES beside them. Groups on a side chain read outwards from the residue. *: point of attachment. C20 diacid = O=C(O)CCCCCCCCCCCCCCCCCCC(=O)*; γGlu = O=C(O)[C@H](CCC(=O)[*:2])N[*:1]; αMeF = C[C@](N)(Cc1ccccc1)C(=O)O; NMeN = CN[C@@H](CC(N)=O)C(=O)O; Orn = NCCC[C@H](N)C(=O)O; AEEA = NCCOCCOCC(=O)O; CH2 = C([*:1])[*:2]

How the values were obtained:
[1] = biological target: T1, human CT receptors (Homo sapiens, UniProt P30988); test: hCTR cAMP functional activity (HTRF); type: cell-based; details: ±SE; UMUC3 cells overexpressing hCTR; relative EC50
T1 construct: expressed in transfected cells
T1 sequence (P30988 25-474): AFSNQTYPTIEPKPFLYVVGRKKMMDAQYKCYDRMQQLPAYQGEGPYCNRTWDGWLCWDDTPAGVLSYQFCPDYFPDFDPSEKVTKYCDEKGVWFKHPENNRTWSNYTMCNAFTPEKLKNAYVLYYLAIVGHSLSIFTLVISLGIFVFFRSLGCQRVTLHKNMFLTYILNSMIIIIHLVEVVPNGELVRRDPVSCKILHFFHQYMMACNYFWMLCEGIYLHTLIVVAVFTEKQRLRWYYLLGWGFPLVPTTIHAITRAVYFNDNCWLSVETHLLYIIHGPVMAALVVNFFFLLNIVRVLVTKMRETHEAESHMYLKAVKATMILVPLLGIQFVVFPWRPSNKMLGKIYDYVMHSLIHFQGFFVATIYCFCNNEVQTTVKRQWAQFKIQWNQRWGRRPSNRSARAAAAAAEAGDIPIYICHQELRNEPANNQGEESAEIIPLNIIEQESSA
Protocol: (§1) The AMY1 and CT receptors are GPCRs that are functionally coupled to Gas proteins. […] In vitro activity of peptides is measured by the amount of cAMP formed in human AMY1R and CTR overexpressed cells.
Human CT receptors are stably expressed in human urinary bladder cells (UM-UC-3, or UMUC3) under control of a pcDNA expression vector. […] After 20 days under selection, the mRNA levels from different clones are measured to confirm the expression of hCTR. To determine the function of over-expressed hCTR cells, the intracellular cAMP levels in response to salmon calcitonin are measured and compared to the expression of hCTR mRNA in each clone.
(§2) hAMY1R cells are cultured in MEM 1× (Corning) supplemented with 10% FBS, 1% antibiotic/antimycotic solution, 1 mM sodium pyruvate, 1×MEM NEAA, 1× GlutaMAX-I, 200 μg/mL hygromycin B, and 0.4 μg/mL puromycin. The hCTR cells are cultured in the same medium lacking the puromycin. Cultured cells are grown to 70% confluency and then incubated overnight with fresh medium.
(§3) Peptides diluted in DMSO are added (200 nL/well) in a 1:3 dilution series using ECHO acoustic liquid handler (Beckman). Cultured cells are detached with TrypLE Express (Gibco), resuspended in assay buffer, and 10 μL containing 1200 cells/well (hCTR) or 1500 cells/well (hAMY1R) are dispensed into each well. The plates are incubated at room temperature for 1 hour.
(§4) The amount of intracellular cAMP is quantitated using HTRF technology (Homogeneous Time Resolved Fluorescence; Cisbio) as per vendor instructions. Briefly, 10 μL cAMP-d2 conjugate and 10 μL anti-cAMP-cryptate conjugate in lysis buffer are incubated with the treated cells at room temperature for 60 min. […] The raw data are converted to cAMP amount (pmol/well) using a cAMP standard curve generated for each experiment.

[2] = biological target: T2, hAMY1R (Homo sapiens, UniProt O60894+P30988); test: hAMY1R cAMP functional activity (HTRF); type: cell-based; details: ±SE; UMUC3 cells overexpressing hAMY1R; relative EC50
T2 construct: expressed in transfected cells
Protocol: as §1
Human AMY1R stable cell lines are generated by further transfecting human RAMP1-pCMVpuroPB (T14213) into UMUC3 hCTR clone cells. After selection, the mRNA levels human RAMP1 from different clones are measured to confirm the expression of human AMY1R.
as §2, §3, §4

T2 sequence (O60894 27-148 partner, one chain of several): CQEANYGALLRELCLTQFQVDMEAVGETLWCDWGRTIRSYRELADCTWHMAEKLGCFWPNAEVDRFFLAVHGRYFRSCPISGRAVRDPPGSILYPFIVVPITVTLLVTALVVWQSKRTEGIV

SMILES	EC50 [1] [nM]	EC50 [2] [nM]
CC(C)C[C@H](NC(=O)[C@H](CCCN)NC(=O)CNC(=O)[C@@H](NC(=O)[C@H](C)NC(=O)[C@@H]1CSCSC[C@H](NC(=O)CC[C@H](N)C(=O)O)C(=O)N[C@@H](CC(N)=O)C(=O)N[C@@H]([C@@H](C)O)C(=O)N[C@@H](C)C(=O)N[C@@H]([C@@H](C)O)C(=O)N1)[C@@H](C)O)C(=O)N[C@@H](C)C(=O)N[C@@H](CCC(=O)O)C(=O)N[C@@](C)(Cc1ccccc1)C(=O)N[C@@H](CC(C)C)C(=O)N[C@H](C(=O)N[C@@H](CCCNC(=N)N)C(=O)N[C@@H](CO)C(=O)N[C@@H](CO)C(=O)N[C@@H](CC(N)=O)C(=O)N(C)[C@@H](CC(N)=O)C(=O)N[C@@H](Cc1ccccc1)C(=O)NCC(=O)N1CCC[C@H]1C(=O)N[C@@H](CCCCN)C(=O)N[C@@H](CC(C)C)C(=O)N1CCC[C@H]1C(=O)N1CCC[C@H]1C(=O)N[C@H](C(=O)N[C@@H](CCC(=O)O)C(=O)N[C@H](C(=O)NCC(=O)N[C@@H](CO)C(=O)N[C@@H](CC(N)=O)C(=O)N[C@H](C(=O)N[C@@H](Cc1ccc(O)cc1)C(N)=O)[C@@H](C)O)C(C)C)[C@@H](C)O)C(C)C [Compound I, γE-CNTATCATG-Orn-LAE-αMeF-LVRSSN-NMeN-FGPKLPPTEVGSNTY-NH2] (γGlu-CNTATCATG[Orn]LAE[αMeF]LVRSSN[NMeN]FGPKLPPTEVGSNTY-NH2; linker 1-6 via CH2)	18 ± 1.08	0.133 ± 0.012
CC(C)C[C@H](NC(=O)[C@H](CCCCN)NC(=O)CNC(=O)[C@@H](NC(=O)[C@H](C)NC(=O)[C@@H]1CSCSC[C@H](NC(=O)CC[C@H](N)C(=O)O)C(=O)N[C@@H](CC(N)=O)C(=O)N[C@@H]([C@@H](C)O)C(=O)N[C@@H](C)C(=O)N[C@@H]([C@@H](C)O)C(=O)N1)[C@@H](C)O)C(=O)N[C@@H](C)C(=O)N[C@@H](CCC(=O)O)C(=O)N[C@@H](Cc1ccccc1)C(=O)N[C@@H](CC(C)C)C(=O)N[C@H](C(=O)N[C@@H](CCCNC(=N)N)C(=O)N[C@@H](CO)C(=O)N[C@@H](CO)C(=O)N[C@@H](CC(N)=O)C(=O)N[C@@H](CC(N)=O)C(=O)N[C@@H](Cc1ccccc1)C(=O)NCC(=O)N1CCC[C@H]1C(=O)N[C@@H](CCCCNC(=O)CC[C@H](NC(=O)COCCOCCNC(=O)COCCOCCNC(=O)CCCCCCCCCCCCCCCCCCC(=O)O)C(=O)O)C(=O)N[C@@H](CC(C)C)C(=O)N1CCC[C@H]1C(=O)N1CCC[C@H]1C(=O)N[C@H](C(=O)N[C@@H](CCC(=O)O)C(=O)N[C@H](C(=O)NCC(=O)N[C@@H](CO)C(=O)N[C@@H](CC(N)=O)C(=O)N[C@H](C(=O)N[C@@H](Cc1ccc(O)cc1)C(N)=O)[C@@H](C)O)C(C)C)[C@@H](C)O)C(C)C [Compound X] (γGlu-CNTATCATGKLAEFLVRSSNNFGPK([γGlu-AEEA-AEEA-C20 diacid])LPPTEVGSNTY-NH2; linker 1-6 via CH2)	14 ± 3.32	0.08 ± 0.013
CC(C)C[C@H](NC(=O)[C@H](CCCN)NC(=O)[C@H](CCC(N)=O)NC(=O)[C@@H](NC(=O)[C@H](C)NC(=O)[C@@H]1CSCSC[C@H](NC(=O)CC[C@H](N)C(=O)O)C(=O)N[C@@H](CC(N)=O)C(=O)N[C@@H]([C@@H](C)O)C(=O)N[C@@H](C)C(=O)N[C@@H]([C@@H](C)O)C(=O)N1)[C@@H](C)O)C(=O)N[C@@H](C)C(=O)N[C@@H](CCC(=O)O)C(=O)N[C@@H](Cc1ccccc1)C(=O)N[C@@H](CC(C)C)C(=O)N[C@H](C(=O)N[C@@H](CCCNC(=N)N)C(=O)N[C@@H](CO)C(=O)N[C@@H](CO)C(=O)N[C@@H](CC(N)=O)C(=O)N[C@@H](CC(N)=O)C(=O)N[C@@H](Cc1ccccc1)C(=O)NCC(=O)N1CCC[C@H]1C(=O)N[C@@H](CCCCNC(=O)COCCOCCNC(=O)COCCOCCNC(=O)CC[C@H](NC(=O)CCCCCCCCCCCCCCCCCCC(=O)O)C(=O)O)C(=O)N[C@@H](CC(C)C)C(=O)N1CCC[C@H]1C(=O)N1CCC[C@H]1C(=O)N[C@H](C(=O)N[C@@H](CCC(=O)O)C(=O)N[C@H](C(=O)NCC(=O)N[C@@H](CO)C(=O)N[C@@H](CC(N)=O)C(=O)N[C@H](C(=O)N[C@@H](Cc1ccc(O)cc1)C(N)=O)[C@@H](C)O)C(C)C)[C@@H](C)O)C(C)C [Compound XII] (γGlu-CNTATCATQ[Orn]LAEFLVRSSNNFGPK([AEEA-AEEA-γGlu-C20 diacid])LPPTEVGSNTY-NH2; linker 1-6 via CH2)	25.9 ± 7.62	0.113 ± 0.034
CC(C)C[C@H](NC(=O)[C@H](CCCCN)NC(=O)CNC(=O)[C@@H](NC(=O)[C@H](C)NC(=O)[C@@H]1CSCSC[C@H](NC(=O)CC[C@H](N)C(=O)O)C(=O)N[C@@H](CC(N)=O)C(=O)N[C@@H]([C@@H](C)O)C(=O)N[C@@H](C)C(=O)N[C@@H]([C@@H](C)O)C(=O)N1)[C@@H](C)O)C(=O)N[C@@H](C)C(=O)N[C@@H](CCC(=O)O)C(=O)N[C@@H](Cc1ccccc1)C(=O)N[C@@H](CC(C)C)C(=O)N[C@H](C(=O)N[C@@H](CCCNC(=N)N)C(=O)N[C@@H](CO)C(=O)N[C@@H](CO)C(=O)N[C@@H](CC(N)=O)C(=O)N[C@@H](CC(N)=O)C(=O)N[C@@H](Cc1ccccc1)C(=O)NCC(=O)N1CCC[C@H]1C(=O)N[C@@H](CCCCNC(=O)COCCOCCNC(=O)COCCOCCNC(=O)CC[C@H](NC(=O)CCCCCCCCCCCCCCCCCCC(=O)O)C(=O)O)C(=O)N[C@@H](CC(C)C)C(=O)N1CCC[C@H]1C(=O)N1CCC[C@H]1C(=O)N[C@H](C(=O)N[C@@H](CCC(=O)O)C(=O)N[C@H](C(=O)NCC(=O)N[C@@H](CO)C(=O)N[C@@H](CC(N)=O)C(=O)N[C@H](C(=O)N[C@@H](Cc1ccc(O)cc1)C(N)=O)[C@@H](C)O)C(C)C)[C@@H](C)O)C(C)C [Compound IX] (γGlu-CNTATCATGKLAEFLVRSSNNFGPK([AEEA-AEEA-γGlu-C20 diacid])LPPTEVGSNTY-NH2; linker 1-6 via CH2)	18.9 ± 3.83	0.132 ± 0.02
CC(C)C[C@H](NC(=O)[C@H](CCCN)NC(=O)CNC(=O)[C@@H](NC(=O)[C@H](C)NC(=O)[C@@H]1CSCSC[C@H](NC(=O)CC[C@H](N)C(=O)O)C(=O)NCC(=O)N[C@@H]([C@@H](C)O)C(=O)N[C@@H](C)C(=O)N[C@@H]([C@@H](C)O)C(=O)N1)[C@@H](C)O)C(=O)N[C@@H](C)C(=O)N[C@@H](CCC(=O)O)C(=O)N[C@@H](Cc1ccccc1)C(=O)N[C@@H](CC(C)C)C(=O)N[C@H](C(=O)N[C@@H](CCCNC(=N)N)C(=O)N[C@@H](CO)C(=O)N[C@@H](CO)C(=O)N[C@@H](CC(N)=O)C(=O)N[C@@H](CC(N)=O)C(=O)N[C@@H](Cc1ccccc1)C(=O)NCC(=O)N1CCC[C@H]1C(=O)N[C@@H](CCCCNC(=O)CC[C@H](NC(=O)CC[C@H](NC(=O)CCCCCCCCCCCCCCCCCCC(=O)O)C(=O)O)C(=O)O)C(=O)N[C@@H](CC(C)C)C(=O)N1CCC[C@H]1C(=O)N1CCC[C@H]1C(=O)N[C@H](C(=O)N[C@@H](CCC(=O)O)C(=O)N[C@H](C(=O)NCC(=O)N[C@@H](CO)C(=O)N[C@@H](CC(N)=O)C(=O)N[C@H](C(=O)N[C@@H](Cc1ccc(O)cc1)C(N)=O)[C@@H](C)O)C(C)C)[C@@H](C)O)C(C)C [Compound XIII] (γGlu-CGTATCATG[Orn]LAEFLVRSSNNFGPK([γGlu-γGlu-C20 diacid])LPPTEVGSNTY-NH2; linker 1-6 via CH2)	9.49 ± 1.54	0.078 ± 0.014
